# Reference: ChEMBL document CHEMBL5380813, “Discovery of 2H-Indazole-3-carboxamide Derivatives as Novel Potent Prostanoid EP4 Receptor Antagonists for Colorectal Cancer Immunotherapy” (J Med Chem, 2023)
# Tests used:
# [1] = target: T1, Prostaglandin E2 receptor EP4 subtype (Homo sapiens, UniProt P35408); assay: Antagonist activity at human EP4 receptor transfected in HEK293 cells assessed as inhibition of PGE2-induced cAMP production measured for 30 mins by Glosensor cAMP assay
# [2] = Metabolic stability in human liver assessed as intrinsic clearance
# [3] = target: T1, Prostaglandin E2 receptor EP4 subtype; assay: Antagonist activity at EP4 receptor (unknown origin) by GloSensor cAMP assay
# Cytochrome P450 2D6 = Cytochrome P450 2D6 (Homo sapiens, UniProt P10635); assay: Inhibition of CYP2D6 (unknown origin); format: ADME
# [4] = target: Prostaglandin E2 receptor EP4 subtype (Rattus norvegicus, UniProt P43114); assay: Antagonist activity at rat EP4 receptor transfected in HEK293 cells assessed as inhibition of PGE2-induced cAMP production measured for 30 mins by Glosensor cAMP assay; format: functional, cell-based
# [5] = target: T2, Prostaglandin E2 receptor EP3 subtype (Homo sapiens, UniProt P43115); assay: Antagonist activity at human EP3 receptor expressed in CHO cells co-expressing Galpha16 assessed as inhibition of PGE2 induced intracellular calcium flux preincubated for 20 mins followed by PGE2 stimulation and measured immediately by microplate reader analysis; format: functional, cell-based
# T2 sequence (P43115 whole entry): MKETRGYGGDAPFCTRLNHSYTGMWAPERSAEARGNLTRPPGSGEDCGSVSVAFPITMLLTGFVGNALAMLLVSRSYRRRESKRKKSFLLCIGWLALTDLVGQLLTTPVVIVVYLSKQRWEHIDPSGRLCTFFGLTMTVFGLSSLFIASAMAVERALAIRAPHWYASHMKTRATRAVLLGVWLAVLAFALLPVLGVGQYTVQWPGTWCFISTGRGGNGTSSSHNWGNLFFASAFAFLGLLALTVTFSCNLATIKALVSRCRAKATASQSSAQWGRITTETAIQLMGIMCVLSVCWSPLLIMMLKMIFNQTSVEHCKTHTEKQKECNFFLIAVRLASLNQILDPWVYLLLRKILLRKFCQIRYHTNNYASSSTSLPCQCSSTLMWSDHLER
# Cytochrome P450 2C19 = Cytochrome P450 2C19 (Homo sapiens, UniProt P33261); assay: Inhibition of CYP2C19 (unknown origin); format: ADME
# [6] = target: Prostaglandin E2 receptor EP4 subtype (Mus musculus, UniProt P32240); assay: Antagonist activity at mouse EP4 receptor transfected in HEK293 cells assessed as inhibition of PGE2-induced cAMP production measured for 30 mins by Glosensor cAMP assay; format: functional, cell-based
# CYP3A = CYP3A (Homo sapiens, UniProt P08684+P20815+P24462+Q9HB55); assay: Inhibition of CYP3A (unknown origin) assessed as reduction in midazolam […] activity; format: ADME, protein assay; conditions: probe midazolam
# Cytochrome P450 2C9 = Cytochrome P450 2C9 (Homo sapiens, UniProt P11712); assay: Inhibition of CYP2C9 (unknown origin); format: ADME
# Cytochrome P450 1A2 = target: T3, Cytochrome P450 1A2 (Homo sapiens, UniProt P05177); assay: Inhibition of CYP1A2 (unknown origin); format: ADME
# T3 sequence (P05177 whole entry): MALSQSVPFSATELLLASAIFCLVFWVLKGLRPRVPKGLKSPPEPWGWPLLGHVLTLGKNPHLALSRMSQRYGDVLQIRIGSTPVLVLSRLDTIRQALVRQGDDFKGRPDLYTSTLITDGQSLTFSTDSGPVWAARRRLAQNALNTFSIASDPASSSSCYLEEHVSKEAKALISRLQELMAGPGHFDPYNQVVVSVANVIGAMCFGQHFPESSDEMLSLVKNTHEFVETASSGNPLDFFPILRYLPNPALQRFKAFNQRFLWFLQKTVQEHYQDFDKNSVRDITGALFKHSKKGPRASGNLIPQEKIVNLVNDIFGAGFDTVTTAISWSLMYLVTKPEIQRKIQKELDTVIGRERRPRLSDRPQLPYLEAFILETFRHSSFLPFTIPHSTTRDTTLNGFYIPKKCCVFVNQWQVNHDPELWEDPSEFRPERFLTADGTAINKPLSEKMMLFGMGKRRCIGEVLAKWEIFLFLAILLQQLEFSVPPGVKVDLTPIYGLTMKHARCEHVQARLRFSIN
# [7] = target: Prostaglandin E2 receptor EP2 subtype (Homo sapiens, UniProt P43116); assay: Antagonist activity at human EP2 receptor expressed in CHO cells co-expressing Galpha16 assessed as inhibition of PGE2 induced intracellular calcium flux preincubated for 20 mins followed by PGE2 stimulation and measured immediately by microplate reader analysis; format: functional, cell-based
# [8] = human, microsomes
# Description: Metabolic stability in human liver microsomes assessed as assessed as intrinsic clearance
# CT26 = assay: animal or person; conditions: Mus musculus, CT26, po, 240 h, read-out: TGI
# Description: Antitumor activity against mouse CT26 cells implanted in BALB/c mouse assessed as tumor growth inhibition at 100 mg/kg, po administered daily for 10 days and measured every 2 days relative to control
# T1 sequence (P35408 whole entry): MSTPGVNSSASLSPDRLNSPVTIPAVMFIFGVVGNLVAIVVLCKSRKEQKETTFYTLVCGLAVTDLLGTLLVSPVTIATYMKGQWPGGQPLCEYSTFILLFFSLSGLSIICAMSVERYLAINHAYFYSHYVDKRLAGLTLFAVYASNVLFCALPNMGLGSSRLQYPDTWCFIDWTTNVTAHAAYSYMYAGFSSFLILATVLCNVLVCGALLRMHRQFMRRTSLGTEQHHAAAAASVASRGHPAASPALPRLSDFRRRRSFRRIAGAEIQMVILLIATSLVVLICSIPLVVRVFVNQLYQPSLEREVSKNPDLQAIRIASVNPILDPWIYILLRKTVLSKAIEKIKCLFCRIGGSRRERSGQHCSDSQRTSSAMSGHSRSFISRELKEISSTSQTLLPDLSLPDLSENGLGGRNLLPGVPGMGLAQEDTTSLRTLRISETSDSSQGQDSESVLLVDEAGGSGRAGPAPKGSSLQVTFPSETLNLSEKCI
# Cytochrome P450 2D6, sequence (P10635 whole entry): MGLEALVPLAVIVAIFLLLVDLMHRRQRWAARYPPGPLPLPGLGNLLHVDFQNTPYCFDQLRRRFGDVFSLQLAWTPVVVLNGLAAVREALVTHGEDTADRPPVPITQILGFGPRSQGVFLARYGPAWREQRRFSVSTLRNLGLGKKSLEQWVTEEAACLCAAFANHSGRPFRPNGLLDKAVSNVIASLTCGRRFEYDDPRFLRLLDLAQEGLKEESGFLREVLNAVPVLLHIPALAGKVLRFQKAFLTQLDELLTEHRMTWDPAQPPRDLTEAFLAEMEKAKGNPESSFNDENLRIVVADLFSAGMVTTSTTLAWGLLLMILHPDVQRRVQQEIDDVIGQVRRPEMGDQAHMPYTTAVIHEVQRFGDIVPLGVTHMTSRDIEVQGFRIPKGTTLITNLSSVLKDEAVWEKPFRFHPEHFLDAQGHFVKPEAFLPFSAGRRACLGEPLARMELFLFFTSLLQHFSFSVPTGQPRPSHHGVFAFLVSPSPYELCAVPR
# Cytochrome P450 2C19, sequence (P33261 whole entry): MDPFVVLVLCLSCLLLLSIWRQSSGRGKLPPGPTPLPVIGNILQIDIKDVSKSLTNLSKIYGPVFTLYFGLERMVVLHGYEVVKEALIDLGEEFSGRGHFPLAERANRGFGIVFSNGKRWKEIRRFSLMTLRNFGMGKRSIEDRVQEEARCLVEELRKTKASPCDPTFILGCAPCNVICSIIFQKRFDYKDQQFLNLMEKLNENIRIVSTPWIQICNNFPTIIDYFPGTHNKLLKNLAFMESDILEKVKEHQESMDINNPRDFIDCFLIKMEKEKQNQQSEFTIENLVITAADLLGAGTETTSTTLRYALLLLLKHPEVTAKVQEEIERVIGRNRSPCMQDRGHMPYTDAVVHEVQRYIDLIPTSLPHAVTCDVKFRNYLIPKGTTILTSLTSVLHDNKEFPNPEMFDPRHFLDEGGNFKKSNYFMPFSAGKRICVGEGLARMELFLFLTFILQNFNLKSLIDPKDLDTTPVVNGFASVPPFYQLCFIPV
# Prostaglandin E2 receptor EP2 subtype, sequence (P43116 whole entry): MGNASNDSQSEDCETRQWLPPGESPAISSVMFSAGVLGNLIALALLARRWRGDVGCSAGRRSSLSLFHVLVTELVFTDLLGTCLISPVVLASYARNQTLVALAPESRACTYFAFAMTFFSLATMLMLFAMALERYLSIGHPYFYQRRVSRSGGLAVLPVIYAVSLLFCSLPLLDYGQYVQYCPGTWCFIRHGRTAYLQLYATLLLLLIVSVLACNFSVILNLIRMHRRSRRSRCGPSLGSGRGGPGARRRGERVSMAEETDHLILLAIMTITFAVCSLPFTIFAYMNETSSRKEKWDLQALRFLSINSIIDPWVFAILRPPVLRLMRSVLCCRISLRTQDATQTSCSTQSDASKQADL
# Prostaglandin E2 receptor EP4 subtype (Rattus norvegicus, UniProt P43114), sequence (P43114 whole entry): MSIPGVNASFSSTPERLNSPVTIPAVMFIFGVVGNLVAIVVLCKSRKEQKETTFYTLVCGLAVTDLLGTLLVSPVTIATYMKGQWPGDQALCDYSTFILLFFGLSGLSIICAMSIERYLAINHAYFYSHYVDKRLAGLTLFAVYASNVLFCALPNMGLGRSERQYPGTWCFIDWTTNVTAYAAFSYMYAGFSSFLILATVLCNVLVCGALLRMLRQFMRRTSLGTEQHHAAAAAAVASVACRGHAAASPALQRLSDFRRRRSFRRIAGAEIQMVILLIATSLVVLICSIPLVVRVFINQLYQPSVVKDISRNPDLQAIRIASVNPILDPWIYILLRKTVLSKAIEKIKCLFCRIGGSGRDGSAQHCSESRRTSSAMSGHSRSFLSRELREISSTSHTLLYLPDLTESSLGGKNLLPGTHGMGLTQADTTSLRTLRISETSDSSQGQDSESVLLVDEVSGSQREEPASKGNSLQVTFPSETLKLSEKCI
# Cytochrome P450 2C9, sequence (P11712 whole entry): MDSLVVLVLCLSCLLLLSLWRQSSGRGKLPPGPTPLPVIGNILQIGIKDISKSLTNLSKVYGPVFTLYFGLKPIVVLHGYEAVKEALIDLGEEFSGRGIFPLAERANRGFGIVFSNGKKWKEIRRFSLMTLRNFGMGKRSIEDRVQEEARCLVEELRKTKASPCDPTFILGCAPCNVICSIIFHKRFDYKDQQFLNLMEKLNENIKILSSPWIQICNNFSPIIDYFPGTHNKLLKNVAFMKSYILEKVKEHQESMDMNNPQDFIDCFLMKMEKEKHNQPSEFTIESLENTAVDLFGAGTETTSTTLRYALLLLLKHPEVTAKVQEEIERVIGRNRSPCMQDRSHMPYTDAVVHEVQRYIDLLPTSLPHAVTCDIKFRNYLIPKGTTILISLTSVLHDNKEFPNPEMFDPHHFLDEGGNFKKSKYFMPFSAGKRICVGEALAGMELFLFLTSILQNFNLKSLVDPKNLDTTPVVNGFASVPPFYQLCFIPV
# Prostaglandin E2 receptor EP4 subtype (Mus musculus, UniProt P32240), sequence (P32240 whole entry): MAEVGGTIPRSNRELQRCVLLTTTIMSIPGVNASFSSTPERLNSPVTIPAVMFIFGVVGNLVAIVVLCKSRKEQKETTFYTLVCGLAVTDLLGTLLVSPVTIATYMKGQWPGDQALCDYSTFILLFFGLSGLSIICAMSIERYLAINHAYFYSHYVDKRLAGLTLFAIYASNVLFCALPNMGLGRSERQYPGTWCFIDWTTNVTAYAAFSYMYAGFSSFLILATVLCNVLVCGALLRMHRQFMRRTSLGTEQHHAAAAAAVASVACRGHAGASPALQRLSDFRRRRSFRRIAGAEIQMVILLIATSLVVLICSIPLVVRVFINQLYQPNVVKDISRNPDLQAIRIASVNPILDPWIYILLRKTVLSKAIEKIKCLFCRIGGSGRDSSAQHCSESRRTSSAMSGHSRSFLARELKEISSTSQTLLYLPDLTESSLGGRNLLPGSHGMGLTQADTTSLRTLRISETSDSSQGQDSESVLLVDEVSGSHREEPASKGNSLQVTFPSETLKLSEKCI
Compound,IC50 [1],further results
O=C(O)c1ccc(CNC(=O)c2c3ccccc3nn2Cc2cccc(Cl)c2)cc1,6.9 nM,
COc1ccc(Cn2nc3ccccc3c2C(=O)N[C@@H](C)c2ccc(C(=O)O)cc2)cc1,7.2 nM,
O=C(O)c1cccc(NC(=O)c2c3ccccc3nn2Cc2cccc(F)c2)c1,10000 nM,
O=C(O)c1cccc(NC(=O)c2c3ccccc3nn2Cc2ccc(F)cc2)c1,10000 nM,
O=C(O)c1ccc(CNC(=O)c2c3ccccc3nn2CCOc2ccc(Cl)cc2)cc1,21.8 nM,
O=C(O)c1ccc(C2(NC(=O)c3c4ccccc4nn3Cc3ccc(C(F)(F)F)cc3)CC2)cc1,6.9 nM,
O=C(O)c1ccc(CNC(=O)c2nn(Cc3cccc(C(F)(F)F)c3)c3ccccc23)cc1,10000 nM,
COc1cccc(Cn2nc3ccccc3c2C(=O)N[C@@H](C)c2ccc(C(=O)O)cc2)c1,19 nM,
COc1ccc(Cn2nc3ccccc3c2C(=O)NCc2ccc(C(=O)O)cc2)cc1F,2.1 nM,
Cc1ccc(Cn2nc3ccccc3c2C(=O)NCc2ccc(C(=O)O)cc2)cc1,4.2 nM,
O=C(O)c1ccc(CNC(=O)c2c3ccc(F)cc3nn2Cc2ccc(C(F)(F)F)cc2)cc1,5.7 nM,CLint scaled [2]: < 8.6 mL/min/kg
O=C(O)c1ccc(CNC(=O)c2nn(Cc3ccccc3)c3ccccc23)cc1,10000 nM,
C[C@H](NC(=O)c1c2ccccc2nn1Cc1ccc(OC(F)(F)F)cc1)c1ccc(C(=O)O)cc1,4.3 nM,
O=C(O)c1ccc(CNC(=O)c2c3ccccc3nn2CCOc2cccc(C(F)(F)F)c2)cc1,69.1 nM,
COc1ccc(Cn2nc(C(=O)NCc3ccc(C(=O)O)cc3)c3ccccc32)cc1,10000 nM,
COc1ccc(Cn2nc3ccccc3c2C(=O)NCc2ccc(C(=O)O)cc2)cc1Cl,6.5 nM,
COc1ccc2c(C(=O)NCc3ccc(C(=O)O)cc3)n(Cc3ccc(C(F)(F)F)cc3)nc2c1,59.4 nM,

Compound,IC50 [1],further results
O=C(O)c1ccc(NC(=O)c2c3ccccc3nn2Cc2ccc(F)cc2)cc1,,IC50 [3]: 3110 nM
O=C(O)c1ccc(CNC(=O)c2nn(Cc3cccc(Cl)c3)c3ccccc23)cc1,10000 nM,
COc1ccc(Cn2nc3ccccc3c2C(=O)NCc2ccc(C(=O)O)cc2)cc1,4.4 nM,
O=C(O)c1ccc(CNC(=O)c2c3ccccc3nn2Cc2ccc(F)cc2)cc1,7.1 nM,
O=C(O)c1ccc(CNC(=O)c2c3ccccc3nn2Cc2ccc(Cl)c(F)c2)cc1,1.7 nM,CLint scaled [2]: < 8.6 mL/min/kg
O=C(O)c1ccc(CNC(=O)c2nn(Cc3ccc(OC(F)(F)F)cc3)c3ccccc23)cc1,10000 nM,
O=C(O)c1ccc(CNC(=O)c2c3ccccc3nn2Cc2ccc(C(F)(F)F)cc2F)cc1,2 nM,
COc1c(F)cc(Cn2nc3ccccc3c2C(=O)NCc2ccc(C(=O)O)cc2)cc1F,7.5 nM,
COc1cccc(Cn2nc3ccccc3c2C(=O)NCc2ccc(C(=O)O)cc2)c1,12 nM,
O=C(O)c1ccc(CNC(=O)c2c3ccccc3nn2Cc2ccc(C(F)(F)F)cc2)cc1,,IC50 (Cytochrome P450 2D6): > 50000 nM; IC50 [4]: 36.3 nM; IC50 [5]: > 10000 nM; IC50 (Cytochrome P450 2C19): > 50000 nM; IC50 [6]: 1.6 nM; IC50 (CYP3A): > 50000 nM; IC50 (Cytochrome P450 2C9): > 50000 nM; IC50 (Cytochrome P450 1A2): > 50000 nM; IC50 [7]: > 10000 nM
O=C(O)c1ccc(CNC(=O)c2c3ccccc3nn2Cc2cccc(F)c2)cc1,17 nM,
O=C(O)c1ccc(CNC(=O)c2nn(Cc3ccc(Cl)cc3)c3ccccc23)cc1,10000 nM,
COc1cccc(Cn2nc(C(=O)NCc3ccc(C(=O)O)cc3)c3ccccc32)c1,10000 nM,
O=C(O)c1ccc(CNC(=O)c2nn(Cc3ccc(C(F)(F)F)cc3)c3ccccc23)cc1,10000 nM,
O=C(O)Cc1ccccc1Nc1c(Cl)cccc1Cl [DICLOFENAC],,CLH [8]: 0.2079 mL/min/kg; CLint scaled [2]: 187 mL/min/kg
C[C@H](NC(=O)c1c(C(F)F)nn(C)c1Oc1cccc(C(F)(F)F)c1)c1ccc(C(=O)O)cc1 [PALUPIPRANT],,inhibition in vivo at 100 mg/kg (CT26): 43.3%
C[C@]12CC[C@H]3[C@@H](CCC4=CC(=O)CC[C@@]43C)[C@@H]1CC[C@@H]2O [TESTOSTERONE],,CLH [8]: 0.1082 mL/min/kg; CLint scaled [2]: 97.4 mL/min/kg
